Values quoted from earlier work in article PMC8513935.

Legend:
[1] = experimental, compiled by the authors from the literature (the ESI cites the sources)
[2] = derived by the authors as gas->solvent minus gas->water (a hypothetical dry solvent; the ESI), not a two-phase measurement
[3] = log P octanol/water from commercial databases, averaged (the ESI); conditions: Octanol (wet), 25 C

CC=C(C)C
log K of transfer, gas to solvent ([1]; 2-Methylpropan-2-ol, 25 C): 2.36 log10 K | log K of transfer, gas to solvent ([1]; CCl4, 25 C): 2.38 log10 K | log K of transfer, gas to solvent ([1]; Cyclohexanone, 25 C): 2.26 log10 K | log K of transfer, gas to solvent ([1]; Hexadecane, 25 C): 2.23 log10 K | log K of transfer, gas to solvent ([1]; Water, 25 C): -0.96 log10 K | log K of transfer, water to solvent ([2]; 2-Methylpropan-2-ol, 25 C): 3.32 log10 K | log K of transfer, water to solvent ([2]; CCl4, 25 C): 3.34 log10 K | log K of transfer, water to solvent ([2]; Cyclohexanone, 25 C): 3.22 log10 K | log K of transfer, water to solvent ([2]; Hexadecane, 25 C): 3.19 log10 K | log K of transfer, water to solvent [3]: 2.67 log10 K

CCCC(C)C
log K of transfer, gas to solvent ([1]; 1,2-Dichloroethane, 25 C): 2.34 log10 K | log K of transfer, gas to solvent ([1]; Acetonitrile, 25 C): 1.82 log10 K | log K of transfer, gas to solvent ([1]; Butan-1-ol, 25 C): 2.29 log10 K | log K of transfer, gas to solvent ([1]; Butanone, 25 C): 2.39 log10 K | log K of transfer, gas to solvent ([1]; Butyronitrile, 25 C): 2.21 log10 K | log K of transfer, gas to solvent ([1]; CCl4, 25 C): 2.81 log10 K | log K of transfer, gas to solvent ([1]; Chlorobenzene, 25 C): 2.78 log10 K | log K of transfer, gas to solvent ([1]; Chloroform, 25 C): 2.71 log10 K | log K of transfer, gas to solvent ([1]; Cyclohexanone, 25 C): 2.3 log10 K | log K of transfer, gas to solvent ([1]; Dichloromethane, 25 C): 2.59 log10 K | log K of transfer, gas to solvent ([1]; Ethanol, 25 C): 2.16 log10 K | log K of transfer, gas to solvent ([1]; Hexadecane, 25 C): 2.5 log10 K | log K of transfer, gas to solvent ([1]; Hexane, 25 C): 2.82 log10 K | log K of transfer, gas to solvent ([1]; Methanol, 25 C): 1.95 log10 K | log K of transfer, gas to solvent ([1]; Pentan-1-ol, 25 C): 2.42 log10 K | log K of transfer, gas to solvent ([1]; Perfluoroalkane, 25 C): 1.81 log10 K | log K of transfer, gas to solvent ([1]; Propan-1-ol, 25 C): 2.15 log10 K | log K of transfer, gas to solvent ([1]; Propan-2-ol, 25 C): 2.16 log10 K | log K of transfer, gas to solvent ([1]; Propanone, 25 C): 2.24 log10 K | log K of transfer, gas to solvent ([1]; Propionitrile, 25 C): 2.08 log10 K | log K of transfer, gas to solvent ([1]; Tetrahydrofuran, 25 C): 2.7 log10 K | log K of transfer, gas to solvent ([1]; Toluene, 25 C): 2.65 log10 K | log K of transfer, gas to solvent ([1]; Water, 25 C): -1.84 log10 K | log K of transfer, water to solvent ([2]; 1,2-Dichloroethane, 25 C): 4.18 log10 K | log K of transfer, water to solvent ([2]; Acetone, 25 C): 4.08 log10 K | log K of transfer, water to solvent ([2]; Acetonitrile, 25 C): 3.66 log10 K | log K of transfer, water to solvent ([2]; Butan-1-ol, 25 C): 4.13 log10 K | log K of transfer, water to solvent ([2]; Butanone, 25 C): 4.23 log10 K | log K of transfer, water to solvent ([2]; Butyronitrile, 25 C): 4.05 log10 K | log K of transfer, water to solvent ([2]; CCl4, 25 C): 4.65 log10 K | log K of transfer, water to solvent ([2]; Chlorobenzene, 25 C): 4.62 log10 K | log K of transfer, water to solvent ([2]; Chloroform, 25 C): 4.55 log10 K | log K of transfer, water to solvent ([2]; Cyclohexanone, 25 C): 4.14 log10 K | log K of transfer, water to solvent ([2]; Dichloromethane, 25 C): 4.43 log10 K | log K of transfer, water to solvent ([2]; Ethanol, 25 C): 4 log10 K | log K of transfer, water to solvent ([2]; Hexadecane, 25 C): 4.34 log10 K | log K of transfer, water to solvent ([2]; Hexane, 25 C): 4.66 log10 K | log K of transfer, water to solvent ([2]; Methanol, 25 C): 3.79 log10 K | log K of transfer, water to solvent ([2]; Pentan-1-ol, 25 C): 4.26 log10 K | log K of transfer, water to solvent ([2]; Perfluoroalkane, 25 C): 3.65 log10 K | log K of transfer, water to solvent ([2]; Propan-1-ol, 25 C): 3.99 log10 K | log K of transfer, water to solvent ([2]; Propan-2-ol, 25 C): 4 log10 K | log K of transfer, water to solvent ([2]; Propionitrile, 25 C): 3.92 log10 K | log K of transfer, water to solvent ([2]; Tetrahydrofuran, 25 C): 4.54 log10 K | log K of transfer, water to solvent ([2]; Toluene, 25 C): 4.49 log10 K | log K of transfer, water to solvent [3]: 3.73 log10 K

Cc1cccc(C)c1
log K of transfer, gas to solvent ([1]; 1,2-Dichloroethane, 25 C): 4.38 log10 K | log K of transfer, gas to solvent ([1]; CCl4, 25 C): 4.18 log10 K | log K of transfer, gas to solvent ([1]; Chloroform, 25 C): 4.29 log10 K | log K of transfer, gas to solvent ([1]; Cyclohexane, 25 C): 3.95 log10 K | log K of transfer, gas to solvent ([1]; Hexadecane, 25 C): 3.84 log10 K | log K of transfer, gas to solvent ([1]; Octan-1-ol, 25 C): 3.79 log10 K | log K of transfer, gas to solvent ([1]; Water, 25 C): 0.61 log10 K | log K of transfer, water to solvent ([2]; 1,2-Dichloroethane, 25 C): 3.77 log10 K | log K of transfer, water to solvent ([2]; CCl4, 25 C): 3.57 log10 K | log K of transfer, water to solvent ([2]; Chloroform, 25 C): 3.68 log10 K | log K of transfer, water to solvent ([2]; Cyclohexane, 25 C): 3.34 log10 K | log K of transfer, water to solvent ([2]; Hexadecane, 25 C): 3.23 log10 K | log K of transfer, water to solvent ([2]; Octan-1-ol(dry), 25 C): 3.18 log10 K | log K of transfer, water to solvent [3]: 3.2 log10 K

O
log K of transfer, gas to solvent ([1]; Benzene, 25 C): 1.25 log10 K | log K of transfer, gas to solvent ([1]; CCl4, 25 C): 0.64 log10 K | log K of transfer, gas to solvent ([1]; Chloroform, 25 C): 1.54 log10 K | log K of transfer, gas to solvent ([1]; Cyclohexane, 25 C): 0.29 log10 K | log K of transfer, gas to solvent ([1]; Dichloromethane, 25 C): 1.94 log10 K | log K of transfer, gas to solvent ([1]; Ethanol, 25 C): 3.72 log10 K | log K of transfer, gas to solvent ([1]; Hexadecane, 25 C): 0.245 log10 K | log K of transfer, gas to solvent ([1]; Hexane, 25 C): 0.54 log10 K | log K of transfer, gas to solvent ([1]; Methanol, 25 C): 4.07 log10 K | log K of transfer, gas to solvent ([1]; Perfluoroalkane, 25 C): 0.33 log10 K | log K of transfer, gas to solvent ([1]; Propan-2-ol, 25 C): 3.41 log10 K | log K of transfer, gas to solvent ([1]; Propanone, 25 C): 3.22 log10 K | log K of transfer, gas to solvent ([1]; Tetrahydrofuran, 25 C): 2.91 log10 K | log K of transfer, gas to solvent ([1]; Toluene, 25 C): 1.24 log10 K | log K of transfer, gas to solvent ([1]; Water, 25 C): 4.69 log10 K | log K of transfer, water to solvent ([2]; Acetone, 25 C): -1.47 log10 K | log K of transfer, water to solvent ([2]; Benzene, 25 C): -3.44 log10 K | log K of transfer, water to solvent ([2]; CCl4, 25 C): -4.05 log10 K | log K of transfer, water to solvent ([2]; Chloroform, 25 C): -3.15 log10 K | log K of transfer, water to solvent ([2]; Cyclohexane, 25 C): -4.4 log10 K | log K of transfer, water to solvent ([2]; Dichloromethane, 25 C): -2.75 log10 K | log K of transfer, water to solvent ([2]; Ethanol, 25 C): -0.97 log10 K | log K of transfer, water to solvent ([2]; Hexadecane, 25 C): -4.44 log10 K | log K of transfer, water to solvent ([2]; Hexane, 25 C): -4.15 log10 K | log K of transfer, water to solvent ([2]; Methanol, 25 C): -0.62 log10 K | log K of transfer, water to solvent ([2]; Perfluoroalkane, 25 C): -4.36 log10 K | log K of transfer, water to solvent ([2]; Propan-2-ol, 25 C): -1.28 log10 K | log K of transfer, water to solvent ([2]; Tetrahydrofuran, 25 C): -1.78 log10 K | log K of transfer, water to solvent ([2]; Toluene, 25 C): -3.45 log10 K | log K of transfer, water to solvent [3]: -1.38 log10 K
